Data as given in patent US7649113B2, “Mono, di and tri cyclic compounds useful for lowering IgE concentrations” (The Research Foundation of State University of New York, priority 2003, dated 2010).

Key:
[1] = tested on: IgE production; assay: Suppression of human IgE production in vivo
[2] = tested on: allergic steroid dependent asthmatic patients; settings: oral administration; cited from earlier work
[3] = tested on: inducible nitric oxide synthase (iNOS); settings: murine macrophages; cited from earlier work
[4] = tested on: human whole blood cultures; settings: physiological doses; cited from earlier work
[5] = tested on: IgE production; assay: Suppression of human IgE production in vitro; assay type: cell-based
[6] = tested on: rheumatoid arthritis (RA) patients; settings: cited from earlier work
[7] = tested on: IgE production; assay: Suppression of murine IgE production in vivo
[8] = tested on: dogs; settings: cited from earlier work
[9] = tested on: PBMC (peripheral blood mononuclear cells); settings: patient PBMC; dose dependent manner; cited from earlier work
[10] = tested on: mice; settings: cited from earlier work
[11] = tested on: normal mouse spleen cells; settings: cited from earlier work

Row | Structure (SMILES) | human IgE production [1] | oral corticosteroid requirements [2] | symptoms (A.M. and P.M.) [2] | inducible nitric oxide synthase (iNOS) expression [3] | mitotic responses to phytohemagglutinin [4] | human IgE production [5] | therapy for early RA ([6]; RA patients) | side effects ([6]; mild and moderate RA patients) | murine IgE production [7] | severity of osteoarthritis (OA) [8] | anti-CD40 rhIL-4 mediated in vitro induction of IgE responses [9] | ability to mount delayed-type hypersensitivity responses [10] | PHA/IL-4 mediated IgE response [11]
1 | CN(C)c1ccc(O)c2c1C[C@H]1C[C@H]3[C@H](N(C)C)C(=O)C(C(N)=O)=C(O)[C@@]3(O)C(=O)C1=C2O [minocycline] | suppresses | decreased | improved their symptoms | inhibits | inhibits | suppresses | appears to be an effective therapy | no side effects | suppresses | reduced | suppress | – | –
2 | C[C@H]1c2cccc(O)c2C(=O)C2=C(O)[C@]3(O)C(=O)C(C(N)=O)=C(O)[C@@H](N(C)C)[C@@H]3[C@@H](O)[C@@H]21 [doxycycline] | – | – | – | – | – | suppresses | – | – | – | reduced | suppress | inhibit | suppresses
